Source: patent publication US10975068B2, “6-aminopyridin-3-yl thiazoles as modulators of RORγT” (Janssen Pharmaceutica NV, priority 2016, dated 2021)
Where two headings read alike, the source gives them in different places.

Legend:
[1] = target: human RORγt ligand binding domain (RORγt LBD) (Homo sapiens (Human), UniProt P51449); assay: RORγt ThermoFluor® assay (thermal shift binding); conditions: read-out: ThermoFluor® Assay, Kd
Summary of the method: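 Binding was inferred from thermal stabilisation (ΔTm) of the E. coli-expressed RORγt LBD (0.065 mg/mL), monitored by 1,8-ANS (60 μM) emission at 500 nm during a 1 °C/min ramp. Buffer was Hepes 100 mM pH 7.0 with NaCl, GSH and Tween-20.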

full-length human RORγt = full-length human RORγt (Homo sapiens (Human), UniProt P51449); assay: RORγt (full-length human) reporter assay, Conditions A; assay type: cell-based; conditions: for IC50: read-out: RORγt (FL) Reporter Assay A, IC50; for RORγt (FL) Reporter Assay A, % inhibition (value marked **): marked **: footnote not shown; for inhibition at 6 µM: read-out: RORγt (FL) Reporter Assay A, % inhibition @ 6 μM
Text: RORγt (Full-Length Human) Reporter Assay:
Cells used in this assay were transiently co-transfected with three different plasmids, one expressing the GAL4-DNA binding domain (DBD)-RORγt fusion protein under control of a CMV promoter (NH2-Gal4-DBD:RORC-COOH in pCMV-BD, Stratagene #211342), and two reporter plasmids—the firefly luciferase reporter under control of a GAL4 promoter (pFR-Luc 2×GAL4) and Renilla luciferase reporter under control of CMV promoter (pRL-CMV, Promega # E2261). The full-length coding sequence was used for human RORγt, i.e., nucleotides 142-1635 of human RORγt, transcript variant 2, NCBI Accession: NM_001001523.1 (SEQ ID NO:1). HEK293T cells were plated at 35000 per well in 96-well plate in medium of MEM with 8.6% FBS. After 18-22 hours incubation, the transfection was carried out by using a PEI solution with 170.5 ng total DNA/well (50 ng pCMV-BD-ROR plus 20 ng of pFR-Luc reporter and 0.5 ng of pRL-CMV reporter plus 100 ng Carrier DNA (Clontech #630440) for each well). 4-6 hours after transfection, cells were treated with compounds for overnight in the medium with final concentration of FBS 1.1% and DMSO 0.1%. After overnight (16 to 20 hours) incubation, media were removed and cells were lysed with 20 μL 1× Passive Lysis Buffer (Promega) for 10-15 minutes. Luminescence was measured using a BMG LUMIstar OPTIMA plate reader, after addition of 75 μL/well firefly luciferase buffer, followed by 75 μL/well Renilla luciferase buffer. To calculate the effect of compounds on RORγt activity, firefly values were normalized against values of DMSO only and values of reference compound at saturating concentration, then further normalized against Renilla signals. IC50s were generated by plotting final Renilla normalized data against compound concentration and percent inhibition was calculated against DMSO control.

full-length human RORγt, sequence (P51449 other isoform, or with tags, fused parts or gaps): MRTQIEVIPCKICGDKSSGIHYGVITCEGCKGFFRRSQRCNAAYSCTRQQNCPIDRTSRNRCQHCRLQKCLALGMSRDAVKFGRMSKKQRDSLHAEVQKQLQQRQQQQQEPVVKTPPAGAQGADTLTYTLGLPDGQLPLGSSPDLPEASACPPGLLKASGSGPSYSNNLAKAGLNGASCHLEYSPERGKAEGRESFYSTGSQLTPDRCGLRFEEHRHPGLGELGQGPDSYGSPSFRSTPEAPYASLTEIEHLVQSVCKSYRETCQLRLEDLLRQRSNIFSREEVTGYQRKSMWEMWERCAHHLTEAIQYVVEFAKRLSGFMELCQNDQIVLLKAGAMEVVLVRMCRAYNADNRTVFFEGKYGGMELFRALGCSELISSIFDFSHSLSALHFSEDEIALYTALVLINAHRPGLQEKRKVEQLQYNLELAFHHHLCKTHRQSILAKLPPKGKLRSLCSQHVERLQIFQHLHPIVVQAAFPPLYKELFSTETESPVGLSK
human RORγt ligand binding domain (RORγt LBD), sequence (P51449 other isoform, or with tags, fused parts or gaps): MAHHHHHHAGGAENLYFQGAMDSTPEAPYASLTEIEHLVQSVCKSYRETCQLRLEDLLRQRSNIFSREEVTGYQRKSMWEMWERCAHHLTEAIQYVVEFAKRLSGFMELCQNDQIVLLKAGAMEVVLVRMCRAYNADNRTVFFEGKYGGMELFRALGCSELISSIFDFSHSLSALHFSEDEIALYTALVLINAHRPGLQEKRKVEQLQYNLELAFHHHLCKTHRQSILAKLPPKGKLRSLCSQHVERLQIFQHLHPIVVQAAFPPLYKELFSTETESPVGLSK

SMILES | Kd [1] [nM] | IC50 (full-length human RORγt; HEK293T cells) [nM] | RORγt (FL) Reporter Assay A, % inhibition (value marked **) (full-length human RORγt; Conditions A) | IC50 (full-length human RORγt; Conditions A) [nM] | inhibition at 6 µM (full-length human RORγt; Conditions A) [%]
CC(C)S(=O)(=O)Nc1cc(C(F)(F)F)c(-c2sc(C(=O)NCC(C)(C)O)nc2C(=O)N2CCC(F)CC2)cn1 [Comparator Example 3, 4-(4-Fluoropiperidine-1-carbonyl)-N-(2-hydroxy-2-methylpropyl)-5-(6-((1-methylethyl)sulfonamido)-4-(trifluoromethyl)pyridin-3-yl)thiazole-2-carboxamide, reference compound] | 53000 | > 6000 |  |  | 
CC(C)(O)CNC(=O)c1nc(C(=O)N2CCC(F)CC2)c(-c2cnc(NC3CCCCC3)c(C(F)(F)F)c2)s1 [Example 1, 5-(6-(Cyclohexylamino)-5-(trifluoromethyl)pyridin-3-yl)-4-(4-fluoropiperidine-1-carbonyl)-N-(2-hydroxy-2-methylpropyl)thiazole-2-carboxamide] | 35 |  | 100** % | 79 | 
CC(C)(O)CNC(=O)c1nc(C(=O)N2CCC(F)CC2)c(-c2cnc(NC3CCCCC3)c(C(F)F)c2)s1 [Example 6, 5-(6-(Cyclohexylamino)-5-(difluoromethyl)pyridin-3-yl)-4-(4-fluoropiperidine-1-carbonyl)-N-(2-hydroxy-2-methylpropyl)thiazole-2-carboxamide] | ~10 |  |  | 160 | 110
CC(C)(O)CNC(=O)c1nc(C(=O)N2CCC(F)CC2)c(-c2cnc(NCCC(F)(F)F)c(C(F)(F)F)c2)s1 [Example 7, 4-(4-Fluoropiperidine-1-carbonyl)-N-(2-hydroxy-2-methylpropyl)-5-(5-(trifluoromethyl)-6-((3,3,3-trifluoropropyl)amino)pyridin-3-yl)thiazole-2-carboxamide] | 230 |  |  | 620 | 80
CC(C)(O)CNC(=O)c1nc(C(=O)N2CCC(F)CC2)c(-c2cnc(NCCC(F)(F)F)cc2C(F)(F)F)s1 [Example 8, 4-(4-Fluoropiperidine-1-carbonyl)-N-(2-hydroxy-2-methylpropyl)-5-(4-(trifluoromethyl)-6-((3,3,3-trifluoropropyl)amino)pyridin-3-yl)thiazole-2-carboxamide] | 120 |  |  | 340 | 95
CC(C)(O)CNC(=O)c1nc(C(=O)N2CCC(F)CC2)c(-c2cnc(NC3CCC3)cc2C(F)(F)F)s1 [Example 9, 5-(6-(Cyclobutylamino)-4-(trifluoromethyl)pyridin-3-yl)-4-(4-fluoropiperidine-1-carbonyl)-N-(2-hydroxy-2-methylpropyl)thiazole-2-carboxamide] | 77 |  |  | 330 | 104
CC(C)(O)CNC(=O)c1nc(C(=O)N2CCC(F)CC2)c(-c2cnc(NC3CCCC(F)(F)C3)c(C(F)(F)F)c2)s1 (stereo not drawn) [Example 13, 5-(6-((3,3-Difluorocyclohexyl)amino)-5-(trifluoromethyl)pyridin-3-yl)-4-(4-fluoropiperidine-1-carbonyl)-N-(2-hydroxy-2-methylpropyl)thiazole-2-carboxamide] | 37 |  | 99** % | 100 | 
CC(C)(O)CNC(=O)c1nc(C(=O)N2CCC(F)CC2)c(-c2cnc(NC3CC(F)(F)C3)cc2C(F)(F)F)s1 [Example 21, 5-(6-((3,3-Difluorocyclobutyl)amino)-4-(trifluoromethyl)pyridin-3-yl)-4-(4-fluoropiperidine-1-carbonyl)-N-(2-hydroxy-2-methylpropyl)thiazole-2-carboxamide] |  |  |  |  | 100
COc1cc(-c2sc(C(=O)NCC(C)(C)O)nc2C(=O)N2CCC(F)CC2)cnc1NC1CCCCC1 [Example 59, 5-(6-(Cyclohexylamino)-5-methoxypyridin-3-yl)-4-(4-fluoropiperidine-1-carbonyl)-N-(2-hydroxy-2-methylpropyl)thiazole-2-carboxamide] |  |  |  | 700 | 88
COc1cc(NC2CCCCC2)ncc1-c1sc(C(=O)NCC(C)(C)O)nc1C(=O)N1CCC(F)CC1 [Example 63, 5-(6-(Cyclohexylamino)-4-methoxypyridin-3-yl)-4-(4-fluoropiperidine-1-carbonyl)-N-(2-hydroxy-2-methylpropyl)thiazole-2-carboxamide] |  |  |  | 250 | 96
CC(C)c1cc(NC2CCCCC2)ncc1-c1sc(C(=O)NCC(C)(C)O)nc1C(=O)N1CCC(F)CC1 [Example 65, 5-(6-(Cyclohexylamino)-4-isopropylpyridin-3-yl)-4-(4-fluoropiperidine-1-carbonyl)-N-(2-hydroxy-2-methylpropyl)thiazole-2-carboxamide] |  |  |  | 210 | 103

Further compounds by falling IC50 (full-length human RORγt; Conditions A), results first:

Kd [1] [nM] | IC50 (full-length human RORγt; HEK293T cells) [nM] | RORγt (FL) Reporter Assay A, % inhibition (value marked **) (full-length human RORγt; Conditions A) | IC50 (full-length human RORγt; Conditions A) [nM] | inhibition at 6 µM (full-length human RORγt; Conditions A) [%] | SMILES
33 |  |  | 76 | 105 | CC(C)(O)CNC(=O)c1nc(C(=O)N2CCC(F)CC2)c(-c2cnc(NC3CCCCC3)cc2C(F)F)s1 [Example 14, 5-(6-(Cyclohexylamino)-4-(difluoromethyl)pyridin-3-yl)-4-(4-fluoropiperidine-1-carbonyl)-N-(2-hydroxy-2-methylpropyl)thiazole-2-carboxamide]
8.1 |  |  | 71 | 108 | CC(C)(O)CNC(=O)c1nc(C(=O)N2CCC(F)CC2)c(-c2cnc(NC3CCCC3)cc2C(F)(F)F)s1 [Example 10, 5-(6-(Cyclopentylamino)-4-(trifluoromethyl)pyridin-3-yl)-4-(4-fluoropiperidine-1-carbonyl)-N-(2-hydroxy-2-methylpropyl)thiazole-2-carboxamide]
7.5 |  | 105** % | 39 |  | CC(C)(O)CCNC(=O)c1nc(C(=O)N2CCC(F)(F)CC2)c(-c2cnc(NC3CCCCC3)cc2C(F)(F)F)s1 [Example 15, 5-(6-(Cyclohexylamino)-4-(trifluoromethyl)pyridin-3-yl)-4-(4,4-difluoropiperidine-1-carbonyl)-N-(3-hydroxy-3-methylbutyl)thiazole-2-carboxamide]
2.6 |  | 107** % | 17 |  | C[C@H]1CC(F)(F)CN1C(=O)c1nc(C(=O)NCC(C)(C)O)sc1-c1cnc(NC2CCCCC2)cc1C(F)(F)F [Example 11, (S)-5-(6-(Cyclohexylamino)-4-(trifluoromethyl)pyridin-3-yl)-4-(4,4-difluoro-2-methylpyrrolidine-1-carbonyl)-N-(2-hydroxy-2-methylpropyl)thiazole-2-carboxamide]
0.98 |  |  | 9 | 106 | C[C@H]1CCCCN1C(=O)c1nc(C(=O)NCC(C)(C)O)sc1-c1cnc(NC2CCCCC2)c(C(F)(F)F)c1 [Example 4, (S)-5-(6-(Cyclohexylamino)-5-(trifluoromethyl)pyridin-3-yl)-N-(2-hydroxy-2-methylpropyl)-4-(2-methylpiperidine-1-carbonyl)thiazole-2-carboxamide]
0.25 |  |  | 9 | 104 | C[C@H]1CCCCN1C(=O)c1nc(C(=O)NCC(C)(C)O)sc1-c1cnc(NC2CCCCC2)cc1C(F)(F)F [Example 5, (S)-5-(6-(Cyclohexylamino)-4-(trifluoromethyl)pyridin-3-yl)-N-(2-hydroxy-2-methylpropyl)-4-(2-methylpiperidine-1-carbonyl)thiazole-2-carboxamide]
